The values that follow come from ChEMBL document CHEMBL5325442, “Diterpenoids and Their Glycosides from the Stems of Tinospora crispa with Beta-Cell Protective Activity” (2023).

Holding throughout (assay type): functional
Assay [1] relates to BRIN-BD11. The assay is described as follows: Protection against dexamethasone-induced cell cycle arrest in rat BRIN-BD11 cells assessed as restoration of dexamethasone-induced increase in G1 phase cells at 50 uM incubated for 48 hrs by RNase A staining based FACS analysis. (In general: A flow cytometer gives signals particle by particle.)
Assay [2] has as its system BRIN-BD11. The assay is described as follows: Protection against dexamethasone-induced cell cycle arrest in rat BRIN-BD11 cells assessed as restoration of dexamethasone-induced decrease in G2/M phase cells at 50 uM incubated for 48 hrs by RNase A staining based FACS analysis.
The subject of assay [3] is BRIN-BD11. The assay is described as follows: Protection against dexamethasone-induced cytotoxicity in rat BRIN-BD11 cells assessed as increase in cell viability incubated for 48 hrs by WST-1 reagent based assay. As to conditions: dose <= 50.0 µM.
Assay [4] has as its system BRIN-BD11. As to the kind of experiment: Protection against dexamethasone-induced cell cycle arrest in rat BRIN-BD11 cells assessed as restoration of dexamethasone-induced decrease in S phase cells at 50 uM incubated for 48 hrs by RNase A staining based FACS analysis.
The test system of assay [5] is BRIN-BD11. The assay is described as follows: Protection against dexamethasone-induced cytotoxicity in rat BRIN-BD11 cells assessed as increase in cell viability at 50 uM incubated for 48 hrs by WST-1 reagent based assay. For orientation: Tetrazolium assays rely on reduction of a dye to a coloured formazan, in cell work by metabolically active cells.
Assay [6] relates to BRIN-BD11. As to the kind of experiment: Protection against dexamethasone-induced cytotoxicity in rat BRIN-BD11 cells assessed as increase in cell viability at 400 uM incubated for 48 hrs by WST-1 reagent based assay.

Each structure is given as a SMILES string. Calls of active or inactive are those of the source. The rule behind the calls is not given here.

For `COC(=O)C1=C[C@H](O)C[C@H]2[C@](C)(C[C@H](O[C@@H]3O[C@H](CO)[C@@H](O)[C@H](O)[C@H]3O)c3ccoc3)[C@H]3C[C@H](OC3=O)[C@@]12C`, the outcome with BRIN-BD11 [1], with BRIN-BD11 [2] and in the assay on BRIN-BD11 [4] was inactive. The Activity result in the assay on BRIN-BD11 [3] is “Dose-Dependent Effect”. The outcome with BRIN-BD11 [5] was Active.

With `C[C@]12C[C@@H](c3ccoc3)OC(=O)[C@H]1CC[C@]1(C)[C@H]2[C@H]2C=C[C@]1(O[C@@H]1O[C@H](CO)[C@@H](O)[C@H](O)[C@H]1O)C(=O)O2`, the result in the assay on BRIN-BD11 [1], with BRIN-BD11 [2] and in the assay on BRIN-BD11 [4] was inactive. Moreover, the Activity entry in the assay on BRIN-BD11 [3] was “Dose-Dependent Effect”. Further, the outcome in the assay on BRIN-BD11 [5] was Active.

For `COC(=O)C1=CCC[C@@H]2[C@](C)(CC(O[C@@H]3O[C@H](CO[C@@H]4O[C@H](CO)[C@@H](O)[C@H](O)[C@H]4O)[C@@H](O)[C@H](O)[C@H]3O)C3=CC(OC)OC3=O)[C@H]3C[C@H](OC3=O)[C@]12C` (some centres not stated), the result in the assay with BRIN-BD11 [1], in the assay with BRIN-BD11 [2] and with BRIN-BD11 [4] was inactive. In addition, the outcome in the assay with BRIN-BD11 [5] was Active.

For `COC(=O)C1=CCC[C@H]2[C@]3(C)C[C@@H](C4=CC(=O)OC4O)OC(=O)[C@@H]3C[C@@H](O[C@@H]3O[C@H](CO)[C@@H](O)[C@H](O)[C@H]3O)[C@@]12C` (some centres not stated), the outcome in the assay on BRIN-BD11 [1], in the assay on BRIN-BD11 [2] and in the assay on BRIN-BD11 [4] was inactive. For the same molecule, the result in the assay on BRIN-BD11 [5] was Active.

On to `CCCCNC(=O)NS(=O)(=O)c1ccc(C)cc1`, for which the outcome in the assay with BRIN-BD11 [6] was Active.

For the molecule `COC(=O)C1=CCC[C@H]2[C@](C)(C[C@@H](O[C@@H]3O[C@H](CO[C@@H]4O[C@H](CO)[C@@H](O)[C@H](O)[C@H]4O)[C@@H](O)[C@H](O)[C@H]3O)c3ccoc3)[C@H]3C[C@H](OC3=O)[C@@]12C`, the result in the assay on BRIN-BD11 [1], with BRIN-BD11 [2] and in the assay with BRIN-BD11 [4] was inactive. Further, the outcome in the assay on BRIN-BD11 [5] was Active.

As to `COC(=O)C1=CCC[C@H]2[C@]3(C)C[C@@H](C4=CC(O)OC4=O)OC(=O)[C@@H]3C[C@@H](O[C@@H]3O[C@H](CO)[C@@H](O)[C@H](O)[C@H]3O)[C@@]12C` (some centres not stated), in the assay on BRIN-BD11 [5], the result was Active.

`COC(=O)C1=CCC[C@H]2[C@](C)(CC(O[C@@H]3O[C@H](CO)[C@@H](O)[C@H](O)[C@H]3O)c3ccoc3)[C@H]3C[C@H](OC3=O)[C@@]12C` (some centres not stated): the result in the assay on BRIN-BD11 [1], in the assay with BRIN-BD11 [2] and with BRIN-BD11 [4] was inactive. In the assay with BRIN-BD11 [3], the Activity result is “Dose-Dependent Effect”. For the same molecule, the outcome in the assay on BRIN-BD11 [5] was Active.

For `C[C@@]1(CC(=O)O)[C@@H](C(=O)O)C[C@H]2OC(=O)C3=CCC[C@@H]1[C@]32C`, the outcome in the assay with BRIN-BD11 [5] was inactive.

For the molecule `C[C@@]12C[C@@H](c3ccoc3)OC(=O)[C@@H]1C[C@@H](O[C@@H]1O[C@H](CO)[C@@H](O)[C@H](O)[C@H]1O)[C@@]13COC(=O)C1=CCC[C@@H]23`, the outcome in the assay on BRIN-BD11 [3] was Active.

Regarding `COC(=O)C1=CCC[C@H]2[C@](C)(C[C@H](O[C@@H]3O[C@H](CO)[C@@H](O)[C@H](O)[C@H]3O)[C@@]3(O)[C@H](OC)O[C@H](OC)[C@H]3O)[C@H]3C[C@H](OC3=O)[C@@]12C`, the outcome in the assay on BRIN-BD11 [5] was inactive.

`COC(=O)C1=C[C@H](O)C[C@H]2[C@]3(C)C[C@@H](c4ccoc4)OC(=O)[C@H]3C[C@H](O[C@@H]3O[C@H](CO)[C@@H](O)[C@H](O)[C@H]3O)[C@@]12C`: the result with BRIN-BD11 [3] was Active.

As for `COC(=O)C1=CCC[C@@H]2[C@](C)(CC(O[C@@H]3O[C@H](CO)[C@@H](O)[C@H](O)[C@H]3O)C3=CC(O)OC3=O)[C@H]3C[C@H](OC3=O)[C@]12C` (some centres not stated), in the assay on BRIN-BD11 [3], the outcome was Active.

Consider `COC(=O)C1=C[C@H](O)C[C@@H]2[C@@]1(C)[C@@H](O[C@@H]1O[C@H](CO)[C@@H](O)[C@H](O)[C@H]1O)C=C1C(=O)O[C@H](c3ccoc3)C[C@]12C`, for which the result in the assay with BRIN-BD11 [1], in the assay on BRIN-BD11 [2] and in the assay on BRIN-BD11 [4] was inactive. Also, the Activity result in the assay on BRIN-BD11 [3] is “Dose-Dependent Effect”. In the assay with BRIN-BD11 [5], the result was Active.

`COC(=O)C1=CCC[C@H]2[C@]3(C)C[C@@H](C4=C[C@H](OC)OC4=O)OC(=O)[C@@H]3CC(O[C@@H]3O[C@H](CO)[C@@H](O)[C@H](O)[C@H]3O)[C@@]12C` (some centres not stated): the result with BRIN-BD11 [3] was Active.

Take `C[C@@]12C[C@@H](c3ccoc3)OC(=O)[C@@H]1C[C@@H]1OC(=O)[C@@]3(O)[C@@H](O[C@@H]4O[C@H](CO)[C@@H](O)[C@H](O)[C@H]4O)CC[C@@H]2[C@@]13C`: in the assay with BRIN-BD11 [3], the outcome was Active.

As for `COC(=O)C1=C[C@H](O)C[C@H]2[C@]3(C)C[C@@H](c4ccoc4)OC(=O)[C@@H]3C[C@@H](O[C@@H]3O[C@H](CO)[C@@H](O)[C@H](O)[C@H]3O)[C@@]12C`, the outcome in the assay on BRIN-BD11 [3] was Active.

As for `COC(=O)C1=CCC[C@H]2[C@]3(C)C[C@@H](c4ccoc4)OC(=O)[C@@H]3C[C@H](O[C@@H]3O[C@H](CO)[C@@H](O)[C@H](O)[C@H]3O)[C@@]12C`, the outcome with BRIN-BD11 [1], in the assay on BRIN-BD11 [2] and with BRIN-BD11 [4] was inactive. In addition, in the assay with BRIN-BD11 [3], the Activity entry was “Dose-Dependent Effect”.

As to `COC(=O)C1=CCC[C@H]2[C@]3(C)C[C@@H](c4ccoc4)OC(=O)C3=CC(O[C@@H]3O[C@H](CO)[C@@H](O)[C@H](O)[C@H]3O)[C@@]12C` (some centres not stated), the outcome with BRIN-BD11 [3] was Active.
